{
  "source": "ChEMBL document CHEMBL5108059",
  "about": "“Discovery of 2-Methyl-2-(4-(2-methyl-8-(1H-pyrrolo[2,3-b]pyridin-6-yl)-1H-naphtho[1,2-d]imidazol-1-yl)phenyl)propanenitrile as a Novel PI3K/mTOR Inhibitor with Enhanced Antitumor Efficacy In Vitro and In Vivo” (J Med Chem, 2022)",
  "key": {"[1]": {"molecular_target": "DNA-dependent protein kinase catalytic subunit (Homo sapiens) (UniProt P78527)", "assay": "Inhibition of DNA-PK (unknown origin) at 1 uM"}, "[2]": {"system": "SW-620", "assay": "Antiproliferative activity against human SW620 cells assessed as inhibition of cell growth incubated for 48 to 72 hrs by MTT assay", "format": "functional, cell-based"}, "[3]": {"system": "L02", "assay": "Cytotoxicity against human L02 cells assessed as reduction in cell viability at 0.3125 to 10 uM incubated for 48 to 72 hrs by MTT assay", "format": "toxicity, cell-based", "settings": "l02, 10 µM, dose lower 0.3125 µM, time lower 48 hrs, dose upper 10 µM, time upper 72 hrs"}, "[4]": {"system": "HeLa", "assay": "Inhibition of colony formation in human HeLa cells assessed as reduction in colony forming ability at 0.625 uM incubated for 15 days by crystal violet staining based analysis", "format": "functional", "settings": "360 h, time 15 day"}, "[5]": {"system": "SW-620", "assay": "Inhibition of colony formation in human SW620 cells assessed as reduction in colony forming ability at 1.25 uM incubated for 15 days by crystal violet staining based analysis", "format": "functional", "settings": "SW-620, 360 h, time 15 day"}, "[6]": {"system": "HeLa", "assay": "Induction of apoptosis in human HeLa cells assessed as viable cells at 0.15625 uM incubated for 36 hrs by Annexin V-FITC/PI staining based flow cytometric analysis (reference value: 96.14 %)", "format": "functional", "settings": "read-out: Activity"}, "[7]": {"system": "HeLa", "assay": "Induction of apoptosis in human HeLa cells assessed as early apoptotic cells at 0.15625 uM incubated for 36 hrs by Annexin V-FITC/PI staining based flow cytometric analysis (reference value: 2.02 %)", "format": "functional", "settings": "0.1562 µM"}, "[8]": {"system": "HeLa", "assay": "Induction of apoptosis in human HeLa cells assessed as late apoptotic cells at 0.15625 uM incubated for 36 hrs by Annexin V-FITC/PI staining based flow cytometric analysis (reference value: 1.4 %)", "format": "functional", "settings": "0.1562 µM"}, "[9]": {"system": "HeLa", "assay": "Induction of apoptosis in human HeLa cells assessed as dead cells at 0.15625 uM incubated for 36 hrs by Annexin V-FITC/PI staining based flow cytometric analysis (reference value: 0.44 %)", "format": "functional", "settings": "0.1562 µM"}, "[10]": {"system": "HeLa", "assay": "Induction of apoptosis in human HeLa cells assessed as dead cells at 0.3125 uM incubated for 36 hrs by Annexin V-FITC/PI staining based flow cytometric analysis (reference value: 0.44 %)", "format": "functional"}, "[11]": {"system": "HeLa", "assay": "Induction of apoptosis in human HeLa cells assessed as viable cells at 1.25 uM incubated for 36 hrs by Annexin V-FITC/PI staining based flow cytometric analysis (reference value: 96.14 %)", "format": "functional", "settings": "read-out: Activity"}, "[12]": {"system": "HeLa", "assay": "Induction of apoptosis in human HeLa cells assessed as early apoptotic cells at 1.25 uM incubated for 36 hrs by Annexin V-FITC/PI staining based flow cytometric analysis (reference value: 2.02 %)", "format": "functional"}, "[13]": {"system": "HeLa", "assay": "Induction of apoptosis in human HeLa cells assessed as dead cells at 1.25 uM incubated for 36 hrs by Annexin V-FITC/PI staining based flow cytometric analysis (reference value: 0.44 %)", "format": "functional"}, "[14]": {"system": "HeLa", "assay": "Inhibition of PI3K/mTOR signalling pathway in human HeLa cells assessed as inhibition of Akt phosphorylation at Thr308 residue incubated for 24 hrs by Western blot analysis", "format": "cell-based", "settings": "dose 0.3125-2.5 µM, DDE = dose-dependent effect"}, "[15]": {"system": "HeLa", "assay": "Induction of cell cycle arrest in human HeLa cells assessed as accumulation of cells at G0/G1 phase measured after 24 hrs by propidium iodide staining based flow cytometry analysis", "format": "functional", "settings": "dose 0.15625-2.5 µM, DDE = dose-dependent effect"}, "[16]": {"assay": "AUC (0 to infinity) in Sprague-Dawley rat at 1 mg/kg, iv measured for 24 hrs by LC-MS/MS analysis", "format": "ADME, organism-based", "parameters": "time 24 hrs, dose 1 mg/kg, route iv", "settings": "in vivo"}, "[17]": {"assay": "Cmax in Sprague-Dawley rat at 10 mg/kg, po measured for 24 hrs by LC-MS/MS analysis", "format": "ADME, organism-based", "parameters": "time 24 hrs, dose 10 mg/kg, route po", "settings": "in vivo"}, "[18]": {"system": "HeLa", "assay": "Antitumor activity against human HeLa cells xenografted in BALB/c nude mouse assessed as tumor growth inhibition at 15 mg/kg, IG administered daily for 30 days and measured every 2 days relative to control", "format": "functional", "settings": "po, 720 h, time 30 day, read-out: TGI"}, "[19]": {"system": "SW-620", "assay": "Antitumor activity against human SW620 cells xenografted in BALB/c nude mouse assessed as tumor growth inhibition at 15 mg/kg, IG administered daily for 30 days and measured every 2 days relative to control", "format": "functional", "settings": "SW-620, po, 720 h, time 30 day, read-out: TGI"}, "[20]": {"assay": "Toxicity in BALB/c nude mouse xenografted with human SW620 cells assessed as lethality at 15 to 60 mg/kg, IG administered daily for 30 days and measured every 2 days", "format": "organism-based, SW-620", "settings": "in vivo, po, 720 h, dose 15-60 mg/kg, time 30 day"}, "[21]": {"assay": "Toxicity in BALB/c nude mouse xenografted with human SW620 cells assessed as reduction in body weight at 15 to 60 mg/kg, IG administered daily for 30 days and measured every 2 days", "format": "organism-based, SW-620", "settings": "in vivo, po, 720 h, dose 15-60 mg/kg, time 30 day"}, "[22]": {"system": "HeLa", "assay": "Induction of apoptosis in human HeLa cells xenografted in BALB/c nude mouse at 15 to 60 mg/kg, IG administered daily for 30 days by TUNEL assay", "format": "functional, organism-based", "settings": "dose 15-60 mg/kg, time 30.0 day"}, "[23]": {"assay": "Toxicity in BALB/c nude mouse xenografted with human HeLa cells assessed as pathological changes in heart at 60 mg/kg, IG administered daily for 30 days by hematoxylin and eosin staining based microscopic analysis", "format": "organism-based", "settings": "in vivo, po, 720 h, time 30 day"}, "[24]": {"assay": "Toxicity in BALB/c nude mouse xenografted with human HeLa cells assessed as pathological changes in spleen at 60 mg/kg, IG administered daily for 30 days by hematoxylin and eosin staining based microscopic analysis", "format": "organism-based", "settings": "in vivo, po, 720 h, time 30 day"}, "[25]": {"assay": "Toxicity in BALB/c nude mouse xenografted with human HeLa cells assessed as pathological changes in lung at 60 mg/kg, IG administered daily for 30 days by hematoxylin and eosin staining based microscopic analysis", "format": "organism-based", "settings": "in vivo, po, 720 h, time 30 day"}, "[26]": {"molecular_target": "Phosphatidylinositol 4,5-bisphosphate 3-kinase catalytic subunit alpha isoform (Homo sapiens, UniProt P42336)", "sequence (P42336 whole entry, canonical isoform)": "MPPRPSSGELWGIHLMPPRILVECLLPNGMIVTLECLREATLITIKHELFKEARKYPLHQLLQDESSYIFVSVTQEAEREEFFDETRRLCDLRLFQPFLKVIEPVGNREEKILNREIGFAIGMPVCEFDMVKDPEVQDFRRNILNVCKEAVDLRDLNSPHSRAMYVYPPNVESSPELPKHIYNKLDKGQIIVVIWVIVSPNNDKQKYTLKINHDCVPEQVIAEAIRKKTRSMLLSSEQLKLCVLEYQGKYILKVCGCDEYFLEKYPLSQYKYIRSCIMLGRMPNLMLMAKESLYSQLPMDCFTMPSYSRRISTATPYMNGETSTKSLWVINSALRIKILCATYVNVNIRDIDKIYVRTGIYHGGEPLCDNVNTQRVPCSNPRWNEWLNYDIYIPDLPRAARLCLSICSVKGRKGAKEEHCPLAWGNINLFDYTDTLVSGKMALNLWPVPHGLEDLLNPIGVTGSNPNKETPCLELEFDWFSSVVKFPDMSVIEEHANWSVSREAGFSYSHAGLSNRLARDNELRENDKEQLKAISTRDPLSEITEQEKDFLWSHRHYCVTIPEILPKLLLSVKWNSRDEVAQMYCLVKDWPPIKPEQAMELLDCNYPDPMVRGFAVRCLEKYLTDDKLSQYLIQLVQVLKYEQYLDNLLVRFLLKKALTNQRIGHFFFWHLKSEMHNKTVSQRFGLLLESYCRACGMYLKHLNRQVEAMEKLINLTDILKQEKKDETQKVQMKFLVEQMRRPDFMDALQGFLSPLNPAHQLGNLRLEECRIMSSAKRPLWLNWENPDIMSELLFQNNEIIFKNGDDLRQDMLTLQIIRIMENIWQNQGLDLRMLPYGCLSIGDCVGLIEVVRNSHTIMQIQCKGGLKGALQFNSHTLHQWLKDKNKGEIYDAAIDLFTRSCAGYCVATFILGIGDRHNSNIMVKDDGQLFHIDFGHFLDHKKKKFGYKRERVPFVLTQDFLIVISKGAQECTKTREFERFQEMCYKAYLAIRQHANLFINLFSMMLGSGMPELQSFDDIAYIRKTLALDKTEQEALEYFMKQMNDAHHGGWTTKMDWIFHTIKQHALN", "assay": "Inhibition of PI3Kalpha (unknown origin) using L-alpha-phosphatidylinositol as substrate incubated for 60 mins in presence of ATP by Kinase Glo luminescence assay"}, "[27]": {"molecular_target": "Phosphatidylinositol 4,5-bisphosphate 3-kinase catalytic subunit gamma isoform (Homo sapiens, UniProt P48736)", "sequence (P48736 whole entry, canonical isoform)": "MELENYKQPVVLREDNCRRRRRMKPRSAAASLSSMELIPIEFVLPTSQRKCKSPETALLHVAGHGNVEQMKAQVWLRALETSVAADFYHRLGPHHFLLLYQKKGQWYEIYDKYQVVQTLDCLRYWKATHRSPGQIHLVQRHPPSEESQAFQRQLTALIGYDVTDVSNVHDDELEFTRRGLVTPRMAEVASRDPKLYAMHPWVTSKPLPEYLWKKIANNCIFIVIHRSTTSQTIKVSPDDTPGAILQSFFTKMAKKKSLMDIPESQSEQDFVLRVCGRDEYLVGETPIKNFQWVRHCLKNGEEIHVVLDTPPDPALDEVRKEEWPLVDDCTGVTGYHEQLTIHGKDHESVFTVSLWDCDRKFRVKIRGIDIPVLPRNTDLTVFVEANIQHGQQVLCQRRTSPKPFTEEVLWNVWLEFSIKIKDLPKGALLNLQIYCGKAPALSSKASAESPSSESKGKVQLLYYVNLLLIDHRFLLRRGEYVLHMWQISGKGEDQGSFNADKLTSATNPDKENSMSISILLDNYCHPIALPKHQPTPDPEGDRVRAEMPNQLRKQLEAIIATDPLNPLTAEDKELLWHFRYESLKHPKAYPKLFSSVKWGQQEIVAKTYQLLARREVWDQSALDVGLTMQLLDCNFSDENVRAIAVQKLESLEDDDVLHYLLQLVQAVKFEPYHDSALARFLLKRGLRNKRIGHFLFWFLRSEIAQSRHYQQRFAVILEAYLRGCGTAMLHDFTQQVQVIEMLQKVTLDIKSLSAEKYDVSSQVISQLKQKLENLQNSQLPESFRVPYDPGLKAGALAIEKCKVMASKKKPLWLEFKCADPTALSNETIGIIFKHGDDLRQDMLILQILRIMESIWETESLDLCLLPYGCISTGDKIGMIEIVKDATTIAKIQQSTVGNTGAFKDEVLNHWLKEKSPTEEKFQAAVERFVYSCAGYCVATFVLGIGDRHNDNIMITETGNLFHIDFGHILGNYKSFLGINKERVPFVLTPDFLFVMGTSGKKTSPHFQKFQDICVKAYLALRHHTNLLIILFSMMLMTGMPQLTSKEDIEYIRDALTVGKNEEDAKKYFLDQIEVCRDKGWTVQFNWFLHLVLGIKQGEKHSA", "assay": "Inhibition of PI3Kgamma (unknown origin) using L-alpha-phosphatidylinositol as substrate incubated for 120 mins in presence of ATP by Kinase Glo luminescence assay"}},
  "note": "The source made the active and inactive calls. The rule behind the calls is not given here.",
  "data": [
    {"smiles": "Cc1nc2cnc3ccc(-c4cnc5[nH]ccc5c4)cc3c2n1-c1ccc(C(C)(C)C#N)nc1", "values": [
      {"measurement": "inhibition", "setting": "[1]", "result": "Active"},
      {"measurement": "IC50", "setting": "[2]", "result": 160, "unit": "nM"},
      {"measurement": "Activity", "setting": "[3]", "result": "Non-Toxic"},
      {"measurement": "inhibition at 0.625 µM", "setting": "[4]", "result": 100, "unit": "%"},
      {"measurement": "inhibition at 1.25 µM", "setting": "[5]", "result": 100, "unit": "%"},
      {"measurement": "viability at 0.1562 µM", "setting": "[6]", "result": 93.5, "unit": "%"},
      {"measurement": "Activity", "setting": "[7]", "result": 4.18, "unit": "%"},
      {"measurement": "Activity", "setting": "[8]", "result": 1.92, "unit": "%"},
      {"measurement": "Activity", "setting": "[9]", "result": 0.4, "unit": "%"},
      {"measurement": "Activity", "setting": "[10]", "result": 0.84, "unit": "%"},
      {"measurement": "viability at 1.25 µM", "setting": "[11]", "result": 41.2, "unit": "%"},
      {"measurement": "Activity", "setting": "[12]", "result": 26.11, "unit": "%"},
      {"measurement": "Activity", "setting": "[13]", "result": 7.4, "unit": "%"},
      {"measurement": "inhibition", "setting": "[14]", "result": "Dde"},
      {"measurement": "Activity", "setting": "[15]", "result": "Dde"},
      {"measurement": "AUC", "setting": "[16]", "result": 992, "unit": "ng·h/mL"},
      {"measurement": "Cmax", "setting": "[17]", "result": 2995, "unit": "ng/mL"},
      {"measurement": "inhibition in vivo at 15 mg/kg", "setting": "[18]", "result": 60.8, "unit": "%"},
      {"measurement": "inhibition in vivo at 15 mg/kg", "setting": "[19]", "result": 60.6, "unit": "%"},
      {"measurement": "Activity", "setting": "[20]", "result": "Non-Toxic"},
      {"measurement": "Activity", "setting": "[21]", "result": "Non-Toxic"},
      {"measurement": "Activity", "setting": "[22]", "result": "Active"},
      {"measurement": "Activity", "setting": "[23]", "result": "Non-Toxic"},
      {"measurement": "Activity", "setting": "[24]", "result": "Non-Toxic"},
      {"measurement": "Activity", "setting": "[25]", "result": "Non-Toxic"},
      {"measurement": "IC50", "setting": "[26]", "result": 4, "unit": "nM"},
      {"measurement": "IC50", "setting": "[27]", "result": 5, "unit": "nM"}
    ]}
  ]
}
